Numbers after ± are expanded uncertainties.
Experiment: refractive index (Na D-line) (dimensionless); xn = mol fraction of the nth substance listed
Settings: 102.2 kPa, Liquid, Standard Abbe refractometry

C[Si](C)(O[Si](C)(C)c1ccccc1)c1ccccc1 [1,3-diphenyltetramethyldisiloxane] + C[Si]1(C)O[Si](C)(C)O[Si](C)(C)O[Si](C)(C)O1
refractive index
Settings	308.15 K	313.15 K	318.15 K	323.15 K	328.15 K
x1 = 0.05	1.3951 ± 0.00036	1.39261 ± 0.00036	1.3901 ± 0.0004	1.38762 ± 0.00036	1.38512 ± 0.00036
x1 = 0.0999	1.40098 ± 0.00036	1.39849 ± 0.00036	1.39602 ± 0.00036	1.39357 ± 0.00036	1.39102 ± 0.00036
x1 = 0.1503	1.40694 ± 0.00036	1.40447 ± 0.00036	1.40199 ± 0.00036	1.39957 ± 0.00036	1.39707 ± 0.00036
x1 = 0.2005	1.41292 ± 0.00036	1.41044 ± 0.00036	1.40799 ± 0.00036	1.40557 ± 0.00036	1.40311 ± 0.00036
x1 = 0.2507	1.41891 ± 0.00036	1.41644 ± 0.00036	1.41401 ± 0.00036	1.41159 ± 0.00036	1.40913 ± 0.00036
x1 = 0.2963	1.42436 ± 0.00036	1.42193 ± 0.00036	1.41951 ± 0.00036	1.41708 ± 0.00036	1.41464 ± 0.00036
x1 = 0.3509	1.43091 ± 0.00036	1.42847 ± 0.00036	1.42607 ± 0.00036	1.42366 ± 0.00036	1.42126 ± 0.00036
x1 = 0.4001	1.43683 ± 0.00036	1.4344 ± 0.00036	1.43201 ± 0.00036	1.42964 ± 0.00036	1.42721 ± 0.00036
x1 = 0.4471	1.44251 ± 0.00036	1.44009 ± 0.00036	1.4377 ± 0.0004	1.4353 ± 0.0004	1.4329 ± 0.00036
x1 = 0.4968	1.44855 ± 0.00035	1.44616 ± 0.00035	1.44376 ± 0.00035	1.44142 ± 0.00035	1.43901 ± 0.00035
x1 = 0.5512	1.45518 ± 0.00035	1.45281 ± 0.00035	1.45043 ± 0.00035	1.44806 ± 0.00035	1.44571 ± 0.00035
x1 = 0.6003	1.46117 ± 0.00035	1.45878 ± 0.00035	1.45644 ± 0.00035	1.45407 ± 0.00035	1.45173 ± 0.00035
x1 = 0.6502	1.46727 ± 0.00035	1.46493 ± 0.00035	1.46256 ± 0.00035	1.46023 ± 0.00035	1.45785 ± 0.00035
x1 = 0.7001	1.47342 ± 0.00035	1.47107 ± 0.00035	1.46872 ± 0.00035	1.46638 ± 0.00035	1.46407 ± 0.00035
x1 = 0.7497	1.47954 ± 0.00035	1.47718 ± 0.00035	1.47488 ± 0.00035	1.47255 ± 0.00035	1.47021 ± 0.00035
x1 = 0.8	1.48577 ± 0.00035	1.48342 ± 0.00035	1.48109 ± 0.00035	1.47882 ± 0.00035	1.47646 ± 0.00035
x1 = 0.85	1.49197 ± 0.00035	1.48966 ± 0.00035	1.48733 ± 0.00035	1.48504 ± 0.00035	1.48273 ± 0.00035
x1 = 0.896	1.49768 ± 0.00035	1.49532 ± 0.00035	1.49303 ± 0.00035	1.49072 ± 0.00035	1.48841 ± 0.00035
x1 = 0.9497	1.50436 ± 0.00035	1.50202 ± 0.00035	1.49976 ± 0.00035	1.49748 ± 0.00035	1.49518 ± 0.00035
x1 = 1	1.51064 ± 0.00035	1.50832 ± 0.00035	1.50605 ± 0.00035	1.50377 ± 0.00035	1.50144 ± 0.00035

C[Si](C)(O[Si](C)(C)c1ccccc1)c1ccccc1 [1,3-diphenyltetramethyldisiloxane] + C=C[Si](C)(C)O[Si](C)(C)C=C
refractive index
Settings	308.15 K	313.15 K	318.15 K	323.15 K	328.15 K
x1 = 0.0502	1.41155 ± 0.00036	1.40892 ± 0.00036	1.40628 ± 0.00036	1.40366 ± 0.00036	1.40099 ± 0.00036
x1 = 0.1	1.41834 ± 0.00036	1.41574 ± 0.00036	1.41315 ± 0.00036	1.41057 ± 0.00036	1.40797 ± 0.00036
x1 = 0.1487	1.42478 ± 0.00036	1.42224 ± 0.00036	1.41967 ± 0.00036	1.41713 ± 0.00036	1.41456 ± 0.00036
x1 = 0.2002	1.43134 ± 0.00035	1.42886 ± 0.00035	1.42631 ± 0.00035	1.42381 ± 0.00035	1.42128 ± 0.00035
x1 = 0.2498	1.43748 ± 0.00035	1.43501 ± 0.00035	1.43251 ± 0.00035	1.43004 ± 0.00035	1.4275 ± 0.00035
x1 = 0.3	1.44347 ± 0.00035	1.44103 ± 0.00035	1.43853 ± 0.00035	1.43607 ± 0.00035	1.43356 ± 0.00035
x1 = 0.3503	1.4493 ± 0.00035	1.44687 ± 0.00035	1.4444 ± 0.00035	1.44199 ± 0.00035	1.43951 ± 0.00035
x1 = 0.3994	1.45477 ± 0.00035	1.45239 ± 0.00035	1.44994 ± 0.00035	1.44752 ± 0.00035	1.44508 ± 0.00035
x1 = 0.4502	1.46032 ± 0.00035	1.45792 ± 0.00035	1.45549 ± 0.00035	1.45314 ± 0.00035	1.45071 ± 0.00035
x1 = 0.5001	1.46558 ± 0.00035	1.46321 ± 0.00035	1.46081 ± 0.00035	1.45844 ± 0.00035	1.45605 ± 0.00035
x1 = 0.5498	1.47066 ± 0.00035	1.46834 ± 0.00035	1.46594 ± 0.00035	1.4636 ± 0.00035	1.4612 ± 0.00035
x1 = 0.6002	1.47565 ± 0.00035	1.47332 ± 0.00035	1.47093 ± 0.00035	1.46859 ± 0.00035	1.46619 ± 0.00035
x1 = 0.6502	1.48048 ± 0.00035	1.47816 ± 0.00035	1.47577 ± 0.00035	1.47346 ± 0.00035	1.47107 ± 0.00035
x1 = 0.7004	1.48515 ± 0.00035	1.48285 ± 0.00035	1.48049 ± 0.00035	1.47821 ± 0.00035	1.47583 ± 0.00035
x1 = 0.7504	1.48971 ± 0.00035	1.48739 ± 0.00035	1.48506 ± 0.00035	1.48275 ± 0.00035	1.48038 ± 0.00035
x1 = 0.8003	1.4941 ± 0.0004	1.49177 ± 0.00035	1.48948 ± 0.00035	1.48715 ± 0.00035	1.48483 ± 0.00035
x1 = 0.8498	1.49836 ± 0.00035	1.49606 ± 0.00035	1.49375 ± 0.00035	1.49142 ± 0.00035	1.48912 ± 0.00035
x1 = 0.8986	1.50242 ± 0.00035	1.50013 ± 0.00035	1.49781 ± 0.00035	1.49552 ± 0.00035	1.4932 ± 0.00035
x1 = 0.9502	1.50659 ± 0.00035	1.50428 ± 0.00035	1.50198 ± 0.00035	1.49974 ± 0.00035	1.49743 ± 0.00035
x1 = 1	1.51052 ± 0.00035	1.5082 ± 0.0004	1.50593 ± 0.00035	1.50366 ± 0.00035	1.50133 ± 0.00035
